What is called EC50 is the concentration that produces a half-maximal response.

Sequence of human APJ receptor (P35414 whole entry): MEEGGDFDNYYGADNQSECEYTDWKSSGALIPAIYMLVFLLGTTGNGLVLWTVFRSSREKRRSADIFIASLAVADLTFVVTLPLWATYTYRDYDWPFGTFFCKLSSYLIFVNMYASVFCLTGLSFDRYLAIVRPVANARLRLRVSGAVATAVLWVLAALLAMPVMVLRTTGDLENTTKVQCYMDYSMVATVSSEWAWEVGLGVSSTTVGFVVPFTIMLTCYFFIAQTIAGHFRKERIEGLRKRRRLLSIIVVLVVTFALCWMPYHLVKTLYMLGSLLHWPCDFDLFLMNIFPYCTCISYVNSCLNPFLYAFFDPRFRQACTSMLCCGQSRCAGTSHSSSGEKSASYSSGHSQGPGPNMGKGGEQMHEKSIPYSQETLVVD

The target of one experiment is human APJ receptor (Homo sapiens (Human), UniProt P35414). In words: Intracellular cAMP accumulation assay (APJ hcAMP, HTRF). Type of experiment: cell-based. As to conditions: HEK293 cells stably expressing human APJ receptor; inhibition of forskolin-mediated cAMP production; read-out: Human APJ cAMP EC50 Potency range. As to the method:
Intracellular cAMP Accumulation Assay
HEK293 cells stably expressing human APJ receptor were used to assess the activity of compounds. Cultured cells were detached and resuspended in the cAMP Homogeneous Time-Resolved Fluorescence (HTRF) assay buffer (Cisbio cat; #62AM4PEJ). The assay was performed in 384-well assay plates (Perkin-Elmer; cat #6008289) according to assay protocol provided by the manufacturer. Serial dilutions of a compound together with assay buffer containing […] and 2 μM forskolin were added to each well containing 5,000 cells and incubated for 30 minutes at room temperature. Subsequently, cAMP D2 reagent was added in the lysis buffer followed by the EuK antibody (Cisbio; cat #62AM4PEJ) and incubated for 60 min. The fluorescence emission ratio was measured using fluorometer. The intracellular cAMP concentrations (compound-stimulated inhibition of forskolin-mediated cAMP production) were calculated by extrapolation from a standard curve using known cAMP concentrations. The EC50 values were obtained by fitting the data to a sigmoidal concentration-response curve with variable slope.
Background: Changes in cAMP serve as a functional read-out for many G protein-coupled receptors.
On to `CCCCc1nc(O)c(-c2nnc(Cc3nnc(-c4ccc(Cl)cc4)o3)o2)c(O)c1-c1c(OC)cccc1OC` [Example 205, 6-butyl-3-(5-{[5-(4-chlorophenyl)-1,3,4-oxadiazol-2-yl]methyl}-1,3,4-oxadiazol-2-yl)-5-(2,6-dimethoxyphenyl)pyridine-2,4-diol], for which the EC50 fell in the range of 10 to 100 nM.

Staying with this experiment, now noted: HEK293 cells stably expressing human APJ receptor; inhibition of forskolin-mediated cAMP production; read-out: hAPJ cAMP EC50 (nM) Potency range.
For `CCCCc1nc(O)c(-c2nnc(CC(=O)N(C)Cc3ccccc3)o2)c(O)c1-c1c(OC)cccc1OC` [Example 260, N-benzyl-2-{5-[6-butyl-5-(2,6-dimethoxyphenyl)-2,4-dihydroxy-pyridin-3-yl]-1,3,4-oxadiazol-2-yl}-N-methylacetamide], the EC50 lay within 0.01 to 10 nM.

On to `CCCCc1nc(O)c(-c2nnc(CC(=O)NCc3ccc(S(N)(=O)=O)cc3)o2)c(O)c1-c1c(OC)cccc1OC` [Example 273, 2-{5-[6-butyl-5-(2,6-dimethoxyphenyl)-2,4-dihydroxy-pyridin-3-yl]-1,3,4-oxadiazol-2-yl}-N-[(4-sulfamoylphenyl)methyl]acetamide], for which the EC50 was 10 to 100 nM.

As to `CCOCc1nc(O)c(-c2nnc(CC(=O)Nc3nccs3)o2)c(O)c1-c1c(OC)cccc1OC` [Example 253, 2-{5-[5-(2,6-dimethoxyphenyl)-6-(ethoxymethyl)-2,4-dihydroxypyridin-3-yl]-1,3,4-oxadiazol-2-yl}-N-(1,3-thiazol-2-yl)acetamide], the EC50 lay within 0.01 to 10 nM.

In the case of `CCCCc1nc(O)c(-c2nnc(CC(=O)NCCc3ccc(Cl)cc3)o2)c(O)c1-c1c(OC)cccc1OC` [Example 267, 2-{5-[6-butyl-5-(2,6-dimethoxyphenyl)-2,4-dihydroxy-pyridin-3-yl]-1,3,4-oxadiazol-2-yl}-N-[2-(4-chlorophenyl)ethyl]acetamide], the 50% effective concentration (EC50) was 0.01 to 10 nM.

The same experiment, now with this note: HEK293 cells stably expressing human APJ receptor; inhibition of forskolin-mediated cAMP production; read-out: hAPJ cAMP EC50 Potency range.
With `CCCCc1nc(O)c(-c2nnc(CNC(=O)c3ccncc3)o2)c(O)c1-c1c(OC)cccc1OC` [Example 164, N-({5-[6-butyl-5-(2,6-dimethoxyphenyl)-2,4-dihydroxypyridin-3-yl]-1,3,4-oxadiazol-2-yl}methyl)pyridine-4-carboxamide], the EC50 was in the range of 0.01 to 10 nM.

Consider `CCCCc1nc(O)c(-c2nnc(Cc3ccc(Cl)cc3)o2)c(O)c1-c1c(Cl)cccc1Cl` [Example 87, 6-butyl-3-{5-[(4-chlorophenyl)methyl]-1,3,4-oxadiazol-2-yl}-5-(2,6-dichlorophenyl) pyridine-2,4-diol], for which the EC50 fell in the range of 10 to 100 nM.

`CCCCc1nc(O)c(-c2nnc(Cc3n[nH]c4ccccc34)o2)c(O)c1-c1c(OC)cccc1OC` [Example 43, 6-butyl-5-(2,6-dimethoxyphenyl)-3-[5-(1H-indazol-3-ylmethyl)-1,3,4-oxadiazol-2-yl]pyridine-2,4-diol]: the EC50 lay within 0.01 to 10 nM.

Regarding `C=CCCc1nc(O)c(-c2nnc(Cc3noc4ccccc34)o2)c(O)c1-c1c(OC)cccc1OC` [Example 27, 3-[5-(1,2-benzoxazol-3-ylmethyl)-1,3,4-oxadiazol-2-yl]-6-(but-3-en-1-yl)-5-(2,6-dimethoxyphenyl) pyridine-2,4-diol], the EC50 fell in the range of 0.01 to 10 nM.

For `CCCCc1nc(O)c(-c2nnc(Cc3ccc(F)c(F)c3)o2)c(O)c1-c1cccc(OC)c1` [Example 139, 6-butyl-3-{5-[(3,4-difluorophenyl)methyl]-1,3,4-oxadiazol-2-yl}-5-(3-methoxyphenyl) pyridine-2,4-diol], the EC50 is 10 to 100 nM.

With `CCCCc1nc(O)c(-c2nnc(Cc3ccccc3Cl)o2)c(O)c1-c1c(OC)cccc1OC` [Example 5, 6-butyl-3-{5-[(2-chlorophenyl)methyl]-1,3,4-oxadiazol-2-yl}-5-(2,6-dimethoxyphenyl) pyridine-2,4-diol], the EC50 is 10 to 100 nM.

Turning to `CCCCc1nc(O)c(-c2nnc(CNC(=O)C(C)(C)C)o2)c(O)c1-c1c(OC)cccc1OC` [Example 167, N-({5-[6-butyl-5-(2,6-dimethoxyphenyl)-2,4-dihydroxypyridin-3-yl]-1,3,4-oxadiazol-2-yl}methyl)-2,2-dimethyl-propanamide], the EC50 lay within 0.01 to 10 nM.

Turning to `CCCCc1nc(O)c(-c2nnc(CC(=O)NC3CC3)o2)c(O)c1-c1c(OC)cccc1OC` [Example 188, 2-{5-[6-butyl-5-(2,6-dimethoxyphenyl)-2,4-dihydroxypyridin-3-yl]-1,3,4-oxadiazol-2-yl}-N-cyclo-propylacetamide], the EC50 was in the range of 0.01 to 10 nM.

On to `CCCCc1nc(O)c(-c2nnc(CNC(=O)COC)o2)c(O)c1-c1c(OC)cccc1OC` [Example 158, N-({5-[6-butyl-5-(2,6-dimethoxyphenyl)-2,4-dihydroxypyridin-3-yl]-1,3,4-oxadiazol-2-yl}methyl)-2-methoxyacetamide], for which the EC50 fell in the range of 0.01 to 10 nM.

In the case of `CCCCc1nc(O)c(-c2nnc(Cc3ccc(Cl)cc3Cl)o2)c(O)c1-c1c(OC)cccc1OC` [Example 35, 6-butyl-3-{5-[(2,4-dichlorophenyl)methyl]-1,3,4-oxadiazol-2-yl}-5-(2,6-dimethoxyphenyl) pyridine-2,4-diol], the EC50 fell in the range of 0.01 to 10 nM.

As for `CCOCc1nc(O)c(-c2nnc(Cn3ccccc3=O)o2)c(O)c1-c1c(OC)cccc1OC` [Example 119, 1-({5-[5-(2,6-dimethoxyphenyl)-6-(ethoxymethyl)-2,4-dihydroxypyridin-3-yl]-1,3,4-oxadiazol-2-yl}methyl)-1,2-dihydropyridin-2-one], the EC50 was in the range of 0.01 to 10 nM.

Turning to `CCOCc1nc(O)c(-c2nnc(Cc3n[nH]c4ccccc34)o2)c(O)c1-c1c(OC)cccc1OC` [Example 132, 5-(2,6-dimethoxyphenyl)-6-(ethoxymethyl)-3-[5-(1H-indazol-3-ylmethyl)-1,3,4-oxadiazol-2-yl]pyridine-2,4-diol], the EC50 was 0.01 to 10 nM.

On to `CCOCc1nc(O)c(-c2nnc(Cn3ccc(-c4ccccc4)n3)o2)c(O)c1-c1c(OC)cccc1OC` [Example 128, 5-(2,6-dimethoxyphenyl)-6-(ethoxymethyl)-3-{5-[(3-phenyl-1H-pyrazol-1-yl)methyl]-1,3,4-oxadiazol-2-yl}pyridine-2,4-diol], for which the EC50 lay within 0.01 to 10 nM.

Regarding `CCCCc1nc(O)c(-c2nnc(Cc3csc(-c4ccc(Cl)cc4)n3)o2)c(O)c1-c1c(OC)cccc1OC` [Example 39, 6-butyl-3-(5-{[2-(4-chlorophenyl)-1,3-thiazol-4-yl]methyl}-1,3,4-oxadiazol-2-yl)-5-(2,6-dimethoxyphenyl) pyridine-2,4-diol], the EC50 fell in the range of 10 to 100 nM.

`CCCCc1nc(O)c(-c2nnc(CC(=O)NCCF)o2)c(O)c1-c1c(OC)cccc1OC` [Example 190, 2-{5-[6-butyl-5-(2,6-dimethoxyphenyl)-2,4-dihydroxypyridin-3-yl]-1,3,4-oxadiazol-2-yl}-N-(2-fluoroethyl) acetamide]: the EC50 is 0.01 to 10 nM.

In the case of `CCCCc1nc(O)c(-c2nnc(CCc3ncccn3)o2)c(O)c1-c1c(OC)cccc1OC` [Example 81, 6-butyl-5-(2,6-dimethoxyphenyl)-3-{5-[2-(pyrimidin-2-yl)ethyl]-1,3,4-oxadiazol-2-yl}pyridine-2,4-diol], the EC50 fell in the range of 0.01 to 10 nM.

On to `CCCCc1nc(O)c(-c2nnc(Cc3ccc(F)c(F)c3)o2)c(O)c1-c1cccc(OCc2ccccc2)c1` [Example 142, 5-[3-(benzyloxy)phenyl]-6-butyl-3-{5-[(3,4-difluorophenyl)methyl]-1,3,4-oxadiazol-2-yl}pyridine-2,4-diol], for which the EC50 is 10 to 100 nM.

Regarding `CCCCc1nc(O)c(-c2nnc(Cc3nc(-c4ccccc4)oc3C)o2)c(O)c1-c1c(OC)cccc1OC` [Example 91, 6-butyl-5-(2,6-dimethoxyphenyl)-3-{5-[(5-methyl-2-phenyl-1,3-oxazol-4-yl)methyl]-1,3,4-oxadiazol-2-yl}pyridine-2,4-diol], the EC50 was 0.01 to 10 nM.

In the case of `CCOCc1nc(O)c(-c2nnc(Cn3ncc4ccccc43)o2)c(O)c1-c1c(OC)cccc1OC` [Example 134, 5-(2,6-dimethoxyphenyl)-6-(ethoxymethyl)-3-[5-(1H-indazol-1-ylmethyl)-1,3,4-oxadiazol-2-yl]pyridine-2,4-diol], the EC50 fell in the range of 0.01 to 10 nM.

Turning to `CCCCc1nc(O)c(-c2nnc(C(c3ccc(F)cc3)N(C)C)o2)c(O)c1-c1c(OC)cccc1OC` (centres unmarked) [Example 88, 6-butyl-5-(2,6-dimethoxyphenyl)-3-{5-[(dimethylamino) (4-fluorophenyl)methyl]-1,3,4-oxadiazol-2-yl}pyridine-2,4-diol], the EC50 was in the range of 0.01 to 10 nM.

`CCOCc1nc(O)c(-c2nnc(Cn3ccnc3)o2)c(O)c1-c1c(OC)cccc1OC` [Example 125, 5-(2,6-dimethoxyphenyl)-6-(ethoxymethyl)-3-[5-(1H-imidazol-1-ylmethyl)-1,3,4-oxadiazol-2-yl]pyridine-2,4-diol]: the EC50 was in the range of 10 to 100 nM.

`CCCCc1nc(O)c(-c2nnc(Cc3cncs3)o2)c(O)c1-c1c(OC)cccc1OC` [Example 49]: the EC50 fell in the range of 100 to 300 nM.

Take `CCOCc1nc(O)c(-c2nnc(Cc3noc4cccnc34)o2)c(O)c1-c1c(OC)cccc1OC` [Example 228, 5-(2,6-dimethoxyphenyl)-6-(ethoxymethyl)-3-(5-{[1,2]oxazolo[4,5-b]pyridin-3-ylmethyl}-1,3,4-oxadiazol-2-yl)pyridine-2,4-diol]: the EC50 was 0.01 to 10 nM.

The experiment is the same for the next values; noted with them: hAPJ cAMP EC50 Potency range (nM), HEK293 cells stably expressing human APJ receptor; inhibition of forskolin-mediated cAMP production.
`CCCCc1nc(O)c(-c2nnc(CC(=O)N3CCN(C)CC3)o2)c(O)c1-c1c(OC)cccc1OC` [Example 185, 2-{5-[6-butyl-5-(2,6-dimethoxyphenyl)-2,4-dihydroxypyridin-3-yl]-1,3,4-oxadiazol-2-yl}-1-(4-methylpiperazin-1-yl)ethan-1-one] gave an EC50 of 10 to 100 nM.

The record behind these values is patent US10336739B2, “4-hydroxy-3-(heteroaryl)pyridine-2-one APJ agonists” (BRISTOL-MYERS SQUIBB COMPANY, priority 2015, dated 2019).
